pEC50: −log10 of the molar value.
Molecular target: T1, CXCR3 (Homo sapiens, UniProt P49682)
T1 construct: host or cells: CHO-K1 (cAMP Hunter CHOK1 CXCR3 Gi cell line)
T1 sequence (P49682 1-368): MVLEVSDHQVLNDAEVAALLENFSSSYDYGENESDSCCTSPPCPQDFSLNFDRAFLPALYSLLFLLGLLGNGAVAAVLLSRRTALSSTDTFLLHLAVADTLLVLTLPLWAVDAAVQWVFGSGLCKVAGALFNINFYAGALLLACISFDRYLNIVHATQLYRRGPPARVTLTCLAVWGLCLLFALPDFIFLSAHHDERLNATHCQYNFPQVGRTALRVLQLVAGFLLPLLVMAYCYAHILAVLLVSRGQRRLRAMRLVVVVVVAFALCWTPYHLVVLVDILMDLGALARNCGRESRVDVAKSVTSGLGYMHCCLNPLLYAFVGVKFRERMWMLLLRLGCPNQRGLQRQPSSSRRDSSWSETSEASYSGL
Experiment: CXCR3 cAMP agonist assay (cAMP Hunter CHOK1 CXCR3 Gi cell line, forskolin-stimulated, HitHunter cAMP detection)
Type: cell-based
Conditions: cAMP Hunter CHOK1 CXCR3 Gi cells, 20 μM forskolin, 30 minutes; read-out: Activity (CXCR3 cAMP agonist assay compound EC50)
Method in brief: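 Agonist activity was measured as suppression of forskolin (20 μM)-induced cAMP, read by luminescent enzyme-fragment complementation with a cAMP standard curve and CXCL11 defining full efficacy. Assay used 50,000 CXCR3 Gi CHOK1 cells/well in pH 7.4 HEPES-buffered HBSS with 0.1% BSA, compound 0-10 μM over 12 points, 30 min incubation.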

CN(C(=O)CCC(=O)N1Cc2ccccc2C[C@H]1C(=O)N[C@@H](CCN)C(=O)Nc1ccc(Cl)c(Cl)c1F)C1CCC1 [Compound 15-37]
pEC50: 6.60 to 7.30

NCC[C@H](NC(=O)[C@@H]1Cc2ccccc2CN1C(=O)CCC(=O)N1CCC2CCCCC21)C(=O)Nc1ccc(Cl)c(Cl)c1F (stereo partly drawn) [Compound 15-38]
pEC50: > 7.30

CC(C)N(C(=O)CCC(=O)N1Cc2ccccc2C[C@H]1C(=O)N[C@@H](CCN)C(=O)Nc1ccc(Cl)c(Cl)c1F)C(C)C [Compound 15-39]
pEC50: 6.30 to 6.60

CCN(CC(C)(C)C)C(=O)CCC(=O)N1Cc2ccccc2C[C@H]1C(=O)N[C@@H](CCN)C(=O)Nc1ccc(Cl)c(Cl)c1F [Compound 15-40]
pEC50: 6.60 to 7.30

CN(C(=O)CCC(=O)N1Cc2ccccc2C[C@H]1C(=O)N[C@@H](CCN)C(=O)Nc1ccc(Cl)c(Cl)c1F)C1CC1 [Compound 15-41]
pEC50: < 6.30

CCN(CC)C(=O)CCC(=O)N1Cc2ccccc2C[C@H]1C(=O)N[C@@H](CCN)C(=O)Nc1ccc(Cl)c(Cl)c1F [Compound 15-42]
pEC50: 6.30 to 6.60

CN(CC(C)(C)C)C(=O)CCC(=O)N1Cc2ccccc2C[C@H]1C(=O)N[C@@H](CCN)C(=O)Nc1ccc(Cl)c(Cl)c1F [Compound 15-43]
pEC50: > 7.30

CN(CCC(C)(C)C)C(=O)CCC(=O)N1Cc2ccccc2C[C@H]1C(=O)N[C@@H](CCN)C(=O)Nc1ccc(Cl)c(Cl)c1F [Compound 15-44]
pEC50: > 7.30

CN1CN(C(=O)CCC(=O)N2Cc3ccccc3C[C@H]2C(=O)N[C@@H](CCN)C(=O)Nc2ccc(Cl)c(Cl)c2F)CC1=O [Compound 15-45]
pEC50: 6.30 to 6.60

NCC[C@H](NC(=O)[C@@H]1Cc2ccccc2CN1C(=O)CCC(=O)N1CCC2(CC2)C1)C(=O)Nc1ccc(Cl)c(Cl)c1F [Compound 15-46]
pEC50: > 7.30

NCC[C@H](NC(=O)[C@@H]1Cc2ccccc2CN1C(=O)CCC(=O)N1CCC(C(F)(F)F)C1)C(=O)Nc1ccc(Cl)c(Cl)c1F (stereo partly drawn) [Compound 15-47]
pEC50: > 7.30

NCC[C@H](NC(=O)[C@@H]1Cc2ccccc2CN1C(=O)CCC(=O)N1CCN2CCC[C@@H]2C1)C(=O)Nc1ccc(Cl)c(Cl)c1F [Compound 15-49]
pEC50: > 7.30

Cc1c(Cl)ccc(NC(=O)[C@H](CCN)NC(=O)[C@@H]2Cc3ccccc3CN2C(=O)CCC(=O)N2CCCC(C)(C)C2)c1Cl [Compound 15-50]
pEC50: > 7.30

Cc1c(Cl)ccc(NC(=O)[C@H](CCN)NC(=O)[C@@H]2Cc3ccccc3CN2C(=O)CCC(=O)N2CCCC3(CCC3)C2)c1Cl [Compound 15-51]
pEC50: > 7.30

Cc1c(Cl)ccc(NC(=O)[C@H](CCN)NC(=O)[C@@H]2Cc3ccccc3CN2C(=O)CCC(=O)N2CCCCC2(C)C)c1Cl [Compound 15-52]
pEC50: > 7.30

CN(C(=O)CCC(=O)N1Cc2ccccc2C[C@H]1C(=O)N[C@@H](CCN)C(=O)Nc1ccc(Cl)c(Cl)c1F)C(C)(C)C [Compound 15-53]
pEC50: 6.60 to 7.30

NCC[C@H](NC(=O)[C@@H]1Cc2ccccc2CN1C(=O)CCC(=O)N1CC2CCCCC2C1)C(=O)Nc1ccc(Cl)c(Cl)c1F (stereo partly drawn) [Compound 15-54]
pEC50: > 7.30

CC(C)(O)C1CCCCN1C(=O)CCC(=O)N1Cc2ccccc2C[C@H]1C(=O)N[C@@H](CCN)C(=O)Nc1ccc(Cl)c(Cl)c1F (stereo partly drawn) [Compound 15-55]
pEC50: > 7.30

NCC[C@H](NC(=O)[C@@H]1Cc2ccccc2CN1C(=O)CCC(=O)N1CCCCC1C(F)F)C(=O)Nc1ccc(Cl)c(Cl)c1F (stereo partly drawn) [Compound 15-56]
pEC50: > 7.30

CC1(C)CCCN(C(=O)CCC(=O)N2Cc3cc(F)ccc3C[C@H]2C(=O)N[C@@H](CCN)C(=O)Nc2ccc(Cl)c(Cl)c2F)C1 [Compound 15-57]
pEC50: > 7.30

NCC[C@H](NC(=O)[C@@H]1Cc2ccc(F)cc2CN1C(=O)CCC(=O)N1CCCC2(CCC2)C1)C(=O)Nc1ccc(Cl)c(Cl)c1F [Compound 15-58]
pEC50: > 7.30

NCC[C@H](NC(=O)[C@@H]1Cc2ccc(F)cc2CN1C(=O)CCC(=O)N1CCCC12CCC2)C(=O)Nc1ccc(Cl)c(Cl)c1F [Compound 15-59]
pEC50: > 7.30

CC1(C)CCN(C(=O)CCC(=O)N2Cc3cc(F)ccc3C[C@H]2C(=O)N[C@@H](CCN)C(=O)Nc2ccc(Cl)c(Cl)c2F)CC1 [Compound 15-60]
pEC50: > 7.30

CC1(C)CCCN1C(=O)CCC(=O)N1Cc2cc(F)ccc2C[C@H]1C(=O)N[C@@H](CCN)C(=O)Nc1ccc(Cl)c(Cl)c1F [Compound 15-61]
pEC50: > 7.30

C[C@H]1CN(C(=O)CCC(=O)N2Cc3ccccc3C[C@H]2C(=O)N[C@@H](CCN)C(=O)Nc2ccc(Cl)c(Cl)c2F)CCN1C [Compound 15-63]
pEC50: > 7.30

C[C@@H]1CN(C(=O)CCC(=O)N2Cc3ccccc3C[C@H]2C(=O)N[C@@H](CCN)C(=O)Nc2ccc(Cl)c(Cl)c2F)CCN1C [Compound 15-64]
pEC50: 6.60 to 7.30

Cc1cc(NC(=O)[C@H](CCNC2CC2)NC(=O)[C@@H]2Cc3ccccc3CN2C(=O)CCC(=O)c2ccccc2)ccc1Cl [Compound 16-1, (S)—N—((S)-1-((4-chloro-3-methylphenyl)amino)-4-(cyclopropylamino)-1-oxobutan-2-yl)-2-(4-oxo-4-phenylbutanoyl)-1,2,3,4-tetrahydroisoquinoline-3-carboxamide]
pEC50: > 7.30

Cc1cc(NC(=O)[C@H](CCN2CCC(O)CC2)NC(=O)[C@@H]2Cc3ccccc3CN2C(=O)CCC(=O)c2ccccc2)ccc1Cl [Compound 17-1, (S)—N—((S)-1-((4-chloro-3-methylphenyl)amino)-4-(4-hydroxypiperidin-1-yl)-1-oxobutan-2-yl)-2-(4-oxo-4-phenylbutanoyl)-1,2,3,4-tetrahydroisoquinoline-3-carboxamide]
pEC50: > 7.30

Cc1cc(NC(=O)[C@H](CCC2CCN(C(=O)OC(C)(C)C)CC2)NC(=O)[C@@H]2Cc3ccccc3CN2C(=O)CCC(=O)c2ccccc2)ccc1Cl [Compound 17-2]
pEC50: 6.30 to 6.60

Cc1cc(NC(=O)[C@H](CCN2CCNC(=O)C2)NC(=O)[C@@H]2Cc3ccccc3CN2C(=O)CCC(=O)c2ccccc2)ccc1Cl [Compound 17-3]
pEC50: 6.60 to 7.30

Cc1cc(NC(=O)[C@H](CCN2CCC(F)(F)CC2)NC(=O)[C@@H]2Cc3ccccc3CN2C(=O)CCC(=O)c2ccccc2)ccc1Cl [Compound 17-4]
pEC50: 6.60 to 7.30

CC(=O)N1CCN(CC[C@H](NC(=O)[C@@H]2Cc3ccccc3CN2C(=O)CCC(=O)c2ccccc2)C(=O)Nc2ccc(Cl)c(C)c2)CC1 [Compound 19-1, (S)—N—((S)-4-(4-acetylpiperazin-1-yl)-1-((4-chloro-3-methylphenyl)amino)-1-oxobutan-2-yl)-2-(4-oxo-4-phenylbutanoyl)-1,2,3,4-tetrahydroisoquinoline-3-carboxamide]
pEC50: 6.30 to 6.60

Cc1cc(NC(=O)C2(NC(=O)[C@@H]3Cc4ccccc4CN3C(=O)CCC(=O)c3ccccc3)CCN(CCO)CC2)ccc1Cl [Compound 20-1, (S)—N-(4-((4-chloro-3-methylphenyl)carbamoyl)-1-(2-hydroxyethyl)piperidin-4-yl)-2-(4-oxo-4-phenylbutanoyl)-1,2,3,4-tetrahydroisoquinoline-3-carboxamide]
pEC50: 6.60 to 7.30

Cc1cc(NC(=O)C(CCC2(N(C)C)COC2)NC(=O)[C@@H]2Cc3ccccc3CN2C(=O)CCC(=O)c2ccccc2)ccc1Cl (stereo partly drawn) [Compound 21-1, (3S)—N-(1-((4-chloro-3-methylphenyl)amino)-4-(3-(dimethylamino)oxetan-3-yl)-1-oxobutan-2-yl)-2-(4-oxo-4-phenylbutanoyl)-1,2,3,4-tetrahydroisoquinoline-3-carboxamide]
pEC50: 6.60 to 7.30

Cc1cc(NC(=O)[C@@H](CC23CC(N)(C2)C3)NC(=O)[C@@H]2Cc3ccccc3CN2C(=O)CCC(=O)c2ccccc2)ccc1Cl [Compound 22-2, (S)—N—((R)-3-(3-aminobicyclo[1.1.1]pentan-1-yl)-1-((4-chloro-3-methylphenyl)amino)-1-oxopropan-2-yl)-2-(4-oxo-4-phenylbutanoyl)-1,2,3,4-tetrahydroisoquinoline-3-carboxamide]
pEC50: 6.30 to 6.60

O=C(CCC(=O)N1Cc2ccccc2C[C@H]1C(=O)N[C@@H](CCN1CCC(F)(F)CC1)C(=O)Nc1ccc(Cl)c(Cl)c1F)c1ccccc1 [Compound 23-2]
pEC50: 6.60 to 7.30

O=C(CCC(=O)N1Cc2ccccc2C[C@H]1C(=O)N[C@@H](CCN1CCC(F)(F)C1)C(=O)Nc1ccc(Cl)c(Cl)c1F)c1ccccc1 [Compound 23-4]
pEC50: 6.60 to 7.30

O=C(CCC(=O)N1Cc2ccccc2C[C@H]1C(=O)N[C@@H](CCN1CCCC(F)(F)C1)C(=O)Nc1ccc(Cl)c(Cl)c1F)c1ccccc1 [Compound 23-5]
pEC50: 6.30 to 6.60

O=C(CCC(=O)N1Cc2ccccc2C[C@H]1C(=O)N[C@@H](CCN1CC(F)(F)C1)C(=O)Nc1ccc2c(c1)CCC2)c1ccccc1 [Compound 23-6]
pEC50: 6.60 to 7.30

O=C(CCC(=O)N1Cc2ccccc2C[C@H]1C(=O)N[C@@H](CCN1CCC(F)(F)C1)C(=O)Nc1ccc2c(c1)CCC2)c1ccccc1 [Compound 23-7]
pEC50: 6.30 to 6.60

O=C(CCC(=O)N1Cc2ccccc2C[C@H]1C(=O)N[C@@H](CCN1CCCC(F)(F)C1)C(=O)Nc1ccc2c(c1)CCC2)c1ccccc1 [Compound 23-8]
pEC50: 6.30 to 6.60

O=C(CCC(=O)N1Cc2ccccc2C[C@H]1C(=O)N[C@@H](CCN1CCS(=O)(=O)CC1)C(=O)Nc1ccc2c(c1)CCC2)c1ccccc1 [Compound 23-9]
pEC50: 6.60 to 7.30
